Data published in publication PMC5493393 (Journal of medicinal chemistry, 2017).

Legend:
KOR [1] = molecular target: T1, KOR (Homo sapiens, UniProt P41145); assay: KOR-arrestin translocation; format: cell-based; settings: for agonist activity in β-arrestin recruitment: agonist mode, normalized to Sal A
KOR [2] = molecular target: T1, KOR; format: binding; settings: for LE (Ligand Efficiency): LE = 1.4(−logKi)/N
MOR = MOR (Homo sapiens, UniProt P35372); assay: Gi-mediated inhibition of cAMP production at MOR; format: cell-based; settings: relative to KOR agonist activity; Figure S1
DOR = DOR (Homo sapiens, UniProt P41143); assay: Gi-mediated inhibition of cAMP production at DOR; format: cell-based; settings: relative to KOR agonist activity; Figure S1
KOR [3] = molecular target: T1, KOR; assay: Gi-mediated inhibition of cAMP production; format: cell-based
KOR I294A mutant = assay: 3H-U69593 binding at KOR single point mutant I294A; settings: vs wild type KOR
KOR M142A mutant = assay: 3H-U69593 binding at KOR single point mutant M142A; settings: vs wild type KOR
KOR H291A mutant = assay: 3H-U69593 binding at KOR single point mutant H291A; settings: vs wild type KOR
[4] = inhibition of Sal A mediated Gi activation

SMILES	LE (Ligand Efficiency) (KOR [2]; Table 2 derivatives) [kcal/mol per heavy atom]	effect of I294A mutation on ligand affinity (fold reduction vs WT KOR) (KOR I294A mutant)	effect of M142A mutation on ligand binding (fold reduction of binding vs WT KOR) (KOR M142A mutant)	effect of H291A mutation on ligand affinity (fold reduction vs WT KOR) (KOR H291A mutant)	also measured
CC(c1cccc(O)c1)N(C)Cc1nccn1CC(F)(F)F (stereo not drawn) [Compound 28]					agonist activity in β-arrestin recruitment (KOR [1]): measurable β-arrestin recruitment activity; %Inhib ± SEM (inhibition of 3H-U69593 radioligand binding) (KOR [2]; Table 1 VLS hits, 50 μM compound, SEM, N=3): 96.9 ± 1.2%; reduction of agonist activity at MOR (MOR): at least 50%; reduction of agonist activity at DOR (DOR): at least 50%
Oc1cccc(C(O)CNCc2ccc(Cl)cc2Cl)c1 (stereo not drawn) [Compound 64]	0.47	more than 10 fold	at least 10 fold	more than 10 fold	antagonist activity: inhibition of Sal A-induced β-arrestin recruitment (KOR [1]; antagonist mode, 30 nM Sal A, normalized to 5-GNTI): completely inhibiting; functional profile, arrestin versus G-protein assays (KOR [3]; comparison of β-arrestin (Tango) and Gi-cAMP assays): balanced antagonist; Schild slope (KOR [3]; [4]): 1.15 ± 0.06; pA2 (Schild analysis) (KOR [3]; [4]): 6.78 ± 0.11
COc1ccc(CNCC(O)c2cccc(O)c2)cc1Br (stereo not drawn) [Compound 67]		more than 10 fold	at least 10 fold	more than 10 fold	
Cc1ccc(C(CNC(=O)c2oc3ccccc3c2C)N2CCCC2)o1 (stereo not drawn) [Compound 69]			enhancing binding		
Cc1ccc(C(CNC(=O)c2oc3ccc(F)cc3c2C)N2CCCC2)o1 (stereo not drawn) [Compound 70]	0.32		enhancing binding		
O=C(NC[C@@H](c1ccco1)N1CCCC1)c1cc2ccccc2o1 [Compound 71]	0.35				
Cc1c(C(=O)NCC(c2ccco2)N2CCCC2)oc2ccc(Cl)cc12 (stereo not drawn) [Compound 72]			enhancing binding		
COc1ccc2oc(C(=O)NCC(c3ccco3)N3CCCC3)c(C)c2c1 (stereo not drawn) [Compound 73]	0.32				
CC(NCc1nccn1C)c1cccc(O)c1 (stereo not drawn) [Compound 81]					agonist activity in β-arrestin recruitment (KOR [1]): minimal β-arrestin recruitment; %Inhib (inhibition of 3H-U69593 radioligand binding) (KOR [2]; Table 2 derivatives, 50 μM compound, N=3): 78.81%; reduction of agonist activity at MOR (MOR): ≥ 70%; reduction of agonist activity at DOR (DOR): ≥ 70%
CCN(Cc1csc(C)n1)C(C)c1cccc(O)c1 (stereo not drawn) [Compound 87]		more than 10 fold		more than 10 fold	
COC(=O)[C@@H]1C[C@H](OC(C)=O)C(=O)[C@H]2[C@@]1(C)CC[C@H]1C(=O)O[C@H](c3ccoc3)C[C@]21C [Sal A, salvinorin A, reference compound]		not affecting binding	at least 10 fold	not affecting binding	
